Values joined by “and” are separate entries in the source; they are usually repeats but may differ in a detail not shown here. Identical values can stand only once. Like-named read-outs stand apart in the source and are kept apart here.

The record followed here is US7300784B2 (priority 2001, dated 2007).

Assay [1] relates to nitrile hydratase of Rhodococcus sp. Cr4. In words: Effect of substrate concentration (Km value, Lineweaver-Burk plot). It counts as biochemical. As to conditions: 20° C., 15 minutes. How it is done:
The Km value for HMBN was determined from the S-V plot (FIG. 4) and Lineweaver-Burk plot (FIG. 5). 0.0585 U of the enzyme was added to solutions containing HMBN at various concentrations and the reactions were incubated at 20° C. for 15 minutes. The reactions were analyzed by HPLC.
In addition, the Km value for 3-cyanopyridine was determined from the S-V plot (FIG. 6) and Lineweaver-Burk plot (FIG. 7). Similarly, 0.0265 U of the enzyme was added to solutions containing 3-cyanopyridine at various concentrations and the reactions were incubated at 20° C. for 15 minutes. The reactions were analyzed by HPLC.

For assay [2] the test system is unchanged. In words: Substrate specificity of the purified nitrile hydratase (amide formation by HPLC). It counts as biochemical. As to conditions: compound used as substrate, 20° C., 2.92 U enzyme. How it is done: The standard assay method for the nitrile hydratase activity used in the following Examples as follows. The enzyme reaction is initiated by adding 3-cyanopyridine or 2-hydroxy-4-methylthiobutyronitrile (HMBN) as the substrate compound. In the case of 3-cyanopyridine, incubation was continued at 20° C. for 10 minute, in the case of HMBN, at 20° C. for 15 minutes. When 3-cyanopyridine was used in the reaction, 0.1 ml of 2 N hydrochloric acid was added to the reaction and the mixture was shaken vigorously to stop the reaction; when HMBN was used in the reaction, 0.1 ml of the reaction solution was added to 0.9 ml of 0.1% (v/v) phosphoric acid and the mixture was shaken vigorously to stop the reaction. The reaction solution was analyzed by HPLC.
• 0.3 M 3-cyanopyridine was added to initiate the reaction. • The mixture was incubated with shaking at 20° C. for […]. • 2 N HCl was added to stop the reaction. • Centrifugation. • HPLC analysis.
The substrate specificity of the enzymewas examined. With the standard composition reaction solution shown in table 2, 2.92 U enzyme was incubated with various types of substrates, instead of 3-cyanopyridine; the generation of amides in the reaction solution was analyzed by HPLC. Thus, the relative activity was determined. The types of substrate compounds added, final concentrations thereof, reaction times, and HPLC conditions used for the analyses of products corresponding to the respective substrates are shown in Table 6. The HPLC conditions (1)-(9) are indicated next to Table 6.
The conditions for HPLC were as follows: • (1) Column: Waters Spherisorb 5 μODS2 (4.6×150 mm); • Solvent: 10 mM KH2PO4(pH 2.8)/acetonitrile (v/v)=9:1; • Flow rate: 1.0 ml/min; • Detection: 230 nm; • Injection volume: 5 μl. • (2) Column: Waters Spherisorb 5 μODS2 (4.6×150 mm); • Solvent: 10 mM KH2PO4(pH 2.8)/acetonitrile (v/v)=9:1; • Flow rate: 1.0 ml/min; • Detection: 230 nm; • Injection volume:5 μl. • (3) Column: Waters Spherisorb 5 μODS2 (4.6×150 mm); • Solvent: 5 mM KH2PO4 (pH 2.8)/acetonitrile (v/v)=12:7; • Flow rate: 1.0 ml/min; • Detection: 230 nm; • Injection volume: 5 μl. • (4) Column: Waters Spherisorb 5 μODS2 (4.6×150 mm); • Solvent: 10 mM KH2PO4(pH 2.5)/acetonitrile (v/v)=99:1; • Flow rate: 1.0 ml/min; • Detection: 210 nm; • Injection volume: 5 μl. • (5) Column: Waters Spherisorb 5 μODS2 (4.6×150 mm); • Solvent: 10 mM KH2PO4(pH 2.5)/acetonitrile (v/v)=99:1; • Flow rate: 1.0 ml/min; • Detection: 230 nm; • Injection volume: 5 μl. • (6) Column: Spherisorb S5ODS2 (4.6×150 mm) • Solvent: 0.1% (v/v) phosphate/acetonitrile (v/v)=99:1; • Flow rate: 1.0 ml/min; • Detection: 210 nm; • Injection volume: 5 μl. • (7) Column: Spherisorb S5ODS2 (4.6×150 mm); • Solvent: 0.1% (v/v) phosphate/acetonitrile (v/v)=9:1; • Flow rate: 1.0 ml/min; • Detection: 210 nm; • Injection volume: 5 μl; • Temperature: 40° C. • (8) Column: Spherisorb S5ODS2 (4.6×150 mm); • Solvent: 0.1%(v/v) phosphate/acetonitrile (v/v)=9:1; • Flow rate: 1.0 ml/min; • Detection: 230 nm; • Injection volume: 5 μl • Temperature: 40° C. • (9) Column: Spherisorb S5ODS2 (4.6×150 mm); • Solvent: 5 mM KH2PO4 (pH 2.8)/acetonitrile (v/v)=12:7; • Flow rate: 1.0 ml/min; • Detection: 210 nm; • Injection volume: 5 μl; • Temperature: 40° C. 13. The Effect of Inhibitors on the Enzymatic Activity

Assay [3] has the same test system. In words: Effect of coexisting Ni++ ion with various substrates. It counts as biochemical. How it is done: Then, with the standard composition of reaction solution shown in table 2, various types of substrates, instead of 3-cyanopyridine, were added to the solutions containing 2.92 U enzyme to study their effects on the activity. […] The addition of Ni^++ ion was assumed to specifically enhance the reaction efficiency when the substrate was a α-hydroxynitrile (Table 11).
The incubation was prolonged for 10 minutes at 20° C. using 2.92 U enzyme. 17. Determination of N-Terminal Amino Acid Sequence

Assay [4] shares this test system. It is filed as biochemical.
The subject of assay [5] is Rhodococcus sp. Cr4. It counts as cell-based.
Assay [6] concerns Rhodococcus rhodochrous ATCC 332878. It counts as cell-based.
[7] abbreviates: activity for 3-cyanopyridine = 100%.

As usually defined, the Km is the concentration of substrate that gives half-maximal velocity. For `N#Cc1cccnc1` [3-Cyanopyridine], the Km in assay [1] was found to be 1380 µM. The “Relative activity (%)” value in assay [2] (setting [7]) turned out to be 100%; in assay [2] (methanol added (final conc. 20% v/v)), 76.5%. Also, the “activity, Free” value in assay [3] is reported as 100. For the same molecule, the “activity, NiCl2 (1 mM)” value in assay [3] worked out at 99.
For the molecule `CSCCC(O)C#N` (centres unmarked) [HMBN, 2-hydroxy-4-methylthiobutyronitrile], in assay [1], the Michaelis-Menten constant (Km) is 1430 µM. For the same molecule, in assay [2] (setting [7]), the “Relative activity (%)” value was 154%. Besides, in assay [3], the “activity, Free” value was 100 and the “activity, NiCl2 (1 mM)” value worked out at 196. The “effect of Ni++ on activity with this substrate” value in assay [3] (Ni++ added) is “enhanced twice”.
Take `[Cl][Ni][Cl]` [NiCl2]: in assay [4], the “Relative activity (%)” value was 196% and 185% and 171% and 197% and 195% and 184%; the “effect on enzyme activity (words)” value was “enhanced”; the “enhancement of the enzymatic activity” value is “enhanced twice”. Further, in assay [5], the “Relative activity (%)” value turned out to be 186% and the “effect on nitrile hydratase activity in resting cell reaction” value is given as “enhanced”. Besides, the “Relative activity (%)” value in assay [6] is listed as 193%.
Consider CoCl2, for which, in assay [4], the “Relative activity (%)” value stood at 154%, the “effect on enzyme activity (words)” value was “enhanced” and the “enhancement of the enzymatic activity” value is 1.5 times. The “Relative activity (%)” value in assay [4] (0 mM = 100) was 136% and 127% and 129% and 150% and 153% and 143%. Moreover, in assay [5], the “Relative activity (%)” value is 137% and the “effect on nitrile hydratase activity in resting cell reaction” value is on record as “enhanced”. Also, in assay [6], the “Relative activity (%)” value was 123%.
